Drawing on PubChem BioAssay (NCI), this text covers GI50 and TGI for 16 compounds.

The structures appear in SMILES notation. “And” between values parts separate entries of the source, which are not always exact repeats. Equal entries are not always repeated.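 Each compound was tested at five concentrations against cells in 96-well plates for 48 hours. At the GI50, growth is halved. TGI marks complete inhibition of growth.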

The first test concerns NCI-H226 lung. As to the kind of experiment: DTP human tumour cell line panel, 48 h.
What is called GI50 is the concentration that inhibits growth by half. In general, TGI refers to the concentration giving total growth inhibition. A high value points to less potent growth arrest. `O=C(c1cccs1)c1c(C(F)(F)F)n([O-])c2cc(Cl)c(Cl)cc2[n+]1=O`: the GI50 was 1.96 µM and the TGI is 3.79 µM.

Take `CSc1nc2nc(-c3ccccc3)c(C)c-2c2n1C(C)C(=O)N2` (stereo unspecified): the GI50 is 35.7 µM and the TGI is more than 100 µM.

Turning to `C=CCN(CC=C)C(=O)c1cc(C)nc2c1c(=O)n(-c1ccccc1)c(=O)n2CCCN1CCN(c2ccccc2OC)CC1`, the GI50 was more than 50 µM and the TGI is more than 50 µM.

Regarding `CCN(CC)c1ccc2nc3ccc(=[N+](CC)CC)cc-3oc2c1`, the GI50 is 0.729 µM and the total growth inhibition concentration (TGI) amounted to 3.8 µM.

Take `CN1CCN(c2c(F)cc(NC3=C(Cl)C(=O)c4ncccc4C3=O)cc2F)CC1`: the GI50 is 22.2 µM and the TGI turned out to be 55.9 µM.

With `COc1cc2nnc3c4cccnc4[nH]c3c2cc1OC`, the GI50 was 5.44 µM and 1.94 µM; the total growth inhibition concentration (TGI) was 21.4 µM and 5.11 µM.

In turn, `Cc1ccc(S(=O)(=O)NCCCCC(N)C(=O)O)cc1` (stereo unspecified) had a total growth inhibition concentration (TGI) of more than 100 µM.

As for `CCOC(=O)/C(=C\c1cccc(C)c1)C(C)=O`, the TGI was more than 100 µM.

`Cc1cccc(Cn2cc(CO)c3cnccc32)c1`: the GI50 was 32 µM and the concentration for total growth inhibition (TGI) is more than 100 µM.

For `COC12C(COC(=O)NCCO)C3=C(C(=O)C(C)=C(N)C3=O)N1CC1NC12` (stereo unspecified), the GI50 is 30.2 µM; the TGI was 71 µM and 150 µM.

Take `Nc1nccc(-c2c(-c3ccc(F)cc3)nn3cc(C(F)(F)F)ccc23)n1`: the GI50 is more than 25 µM and the total growth inhibition concentration (TGI) was more than 25 µM.

On to `C#Cc1ccc(-n2c(/C=C/c3ccc(O)cc3)nc3ncccc3c2=O)cc1`, for which the GI50 was 2.58 µM and the TGI came to 13.1 µM.

Regarding `O=C(O)CN(CCN(CC(=O)O)CC(=O)O)CC(=O)O.[Mn+2]`, the GI50 was more than 100 µM and the TGI was more than 100 µM.

In the case of `N#CC(C#N)=C/C=C(\Sc1ccc(Cl)cc1)c1ccc(F)cc1`, the GI50 is 2.72 µM and the TGI worked out at 17.8 µM.

On to `CCSCC1CC(O)(c2ccccc2)C(c2ccccc2)C(c2ccc(F)cc2)O1` (stereo unspecified), for which the GI50 is 1.97 µM and the TGI was found to be 4.89 µM.

Consider `CCO/C=C1\SC(=S)N(c2ccc(OCC)cc2)C1=O`, for which the TGI was more than 100 µM.

The test system of a further test is NCI/ADR-RES ovarian. As to the kind of experiment: DTP human tumour cell line panel, 48 h.
With `O=C(c1cccs1)c1c(C(F)(F)F)n([O-])c2cc(Cl)c(Cl)cc2[n+]1=O`, the GI50 is 1.05 µM and the TGI amounted to 2.55 µM.

Consider `CSc1nc2nc(-c3ccccc3)c(C)c-2c2n1C(C)C(=O)N2` (stereo unspecified), for which the GI50 was 38.8 µM and the total growth inhibition concentration (TGI) is more than 100 µM.

As for `C=CCN(CC=C)C(=O)c1cc(C)nc2c1c(=O)n(-c1ccccc1)c(=O)n2CCCN1CCN(c2ccccc2OC)CC1`, the GI50 was more than 50 µM and the total growth inhibition concentration (TGI) is more than 50 µM.

For the compound `CCN(CC)c1ccc2nc3ccc(=[N+](CC)CC)cc-3oc2c1`, the GI50 was 6.52 µM and the TGI was more than 73.3 µM.

Turning to `CN1CCN(c2c(F)cc(NC3=C(Cl)C(=O)c4ncccc4C3=O)cc2F)CC1`, the GI50 was 17.9 µM and the TGI is 49.3 µM.

Regarding `COc1cc2nnc3c4cccnc4[nH]c3c2cc1OC`, the GI50 is 2.19 µM and the TGI stood at 50 µM.

In turn, `Cc1ccc(S(=O)(=O)NCCCCC(N)C(=O)O)cc1` (stereo unspecified) showed a TGI of more than 100 µM.

On to `CCOC(=O)/C(=C\c1cccc(C)c1)C(C)=O`, for which the TGI was determined as 79.5 µM.

As to `Cc1cccc(Cn2cc(CO)c3cnccc32)c1`, the GI50 is 55.2 µM and the total growth inhibition concentration (TGI) is more than 100 µM.

The compound `COC12C(COC(=O)NCCO)C3=C(C(=O)C(C)=C(N)C3=O)N1CC1NC12` (stereo unspecified) registered a TGI of more than 264 µM.

Take `Nc1nccc(-c2c(-c3ccc(F)cc3)nn3cc(C(F)(F)F)ccc23)n1`: the GI50 is more than 25 µM and the total growth inhibition concentration (TGI) was more than 25 µM.

`C#Cc1ccc(-n2c(/C=C/c3ccc(O)cc3)nc3ncccc3c2=O)cc1`: the GI50 is 5.27 µM and the total growth inhibition concentration (TGI) was more than 100 µM.

For `O=C(O)CN(CCN(CC(=O)O)CC(=O)O)CC(=O)O.[Mn+2]`, the GI50 was more than 100 µM and the concentration for total growth inhibition (TGI) was more than 100 µM.

With `N#CC(C#N)=C/C=C(\Sc1ccc(Cl)cc1)c1ccc(F)cc1`, the GI50 is 0.948 µM and the TGI amounted to 4.94 µM.

For the compound `CCSCC1CC(O)(c2ccccc2)C(c2ccccc2)C(c2ccc(F)cc2)O1` (stereo unspecified), the GI50 is 1.89 µM and the total growth inhibition concentration (TGI) is 6.67 µM.

Turning to `CCO/C=C1\SC(=S)N(c2ccc(OCC)cc2)C1=O`, the total growth inhibition concentration (TGI) is more than 100 µM.

A further test concerns SF-268 CNS. The test can be described thus: DTP human tumour cell line panel, 48 h.
In the case of `O=C(c1cccs1)c1c(C(F)(F)F)n([O-])c2cc(Cl)c(Cl)cc2[n+]1=O`, the GI50 is 1.03 µM and the TGI worked out at 2.45 µM.

On to `CSc1nc2nc(-c3ccccc3)c(C)c-2c2n1C(C)C(=O)N2` (stereo unspecified), for which the GI50 is 34.2 µM and the TGI was more than 100 µM.

As to `C=CCN(CC=C)C(=O)c1cc(C)nc2c1c(=O)n(-c1ccccc1)c(=O)n2CCCN1CCN(c2ccccc2OC)CC1`, the GI50 was more than 50 µM and the TGI was more than 50 µM.

For the compound `CCN(CC)c1ccc2nc3ccc(=[N+](CC)CC)cc-3oc2c1`, the concentration for 50% growth inhibition (GI50) was 0.184 µM and the TGI worked out at 31.2 µM.

Take `CN1CCN(c2c(F)cc(NC3=C(Cl)C(=O)c4ncccc4C3=O)cc2F)CC1`: the GI50 was 14.1 µM and the TGI was found to be 28.3 µM.

Take `COc1cc2nnc3c4cccnc4[nH]c3c2cc1OC`: the GI50 is 1.48 µM and 0.535 µM; the total growth inhibition concentration (TGI) is 12.9 µM and 4.53 µM.

`Cc1ccc(S(=O)(=O)NCCCCC(N)C(=O)O)cc1` (stereo unspecified) came in with a concentration for total growth inhibition (TGI) of more than 100 µM.

`CCOC(=O)/C(=C\c1cccc(C)c1)C(C)=O` registered a total growth inhibition concentration (TGI) of 45.4 µM.
